The results in this text go back to patent US12180193B2, “Accelerating fibrosarcoma protein degrading compounds and associated methods of use” (Arvinas Operations, Inc., priority 2020, dated 2024).

A word on the DC50: it is the concentration at which degradation of the target reaches its halfway point. The term Dmax denotes the greatest extent of degradation seen. Read a low Dmax as a partial loss of target.

One test deals with T1, BRAF V600E (Homo sapiens, UniProt P15056, V600E).
T1 construct: expressed in transfected cells
T1 sequence (P15056 whole entry V600E): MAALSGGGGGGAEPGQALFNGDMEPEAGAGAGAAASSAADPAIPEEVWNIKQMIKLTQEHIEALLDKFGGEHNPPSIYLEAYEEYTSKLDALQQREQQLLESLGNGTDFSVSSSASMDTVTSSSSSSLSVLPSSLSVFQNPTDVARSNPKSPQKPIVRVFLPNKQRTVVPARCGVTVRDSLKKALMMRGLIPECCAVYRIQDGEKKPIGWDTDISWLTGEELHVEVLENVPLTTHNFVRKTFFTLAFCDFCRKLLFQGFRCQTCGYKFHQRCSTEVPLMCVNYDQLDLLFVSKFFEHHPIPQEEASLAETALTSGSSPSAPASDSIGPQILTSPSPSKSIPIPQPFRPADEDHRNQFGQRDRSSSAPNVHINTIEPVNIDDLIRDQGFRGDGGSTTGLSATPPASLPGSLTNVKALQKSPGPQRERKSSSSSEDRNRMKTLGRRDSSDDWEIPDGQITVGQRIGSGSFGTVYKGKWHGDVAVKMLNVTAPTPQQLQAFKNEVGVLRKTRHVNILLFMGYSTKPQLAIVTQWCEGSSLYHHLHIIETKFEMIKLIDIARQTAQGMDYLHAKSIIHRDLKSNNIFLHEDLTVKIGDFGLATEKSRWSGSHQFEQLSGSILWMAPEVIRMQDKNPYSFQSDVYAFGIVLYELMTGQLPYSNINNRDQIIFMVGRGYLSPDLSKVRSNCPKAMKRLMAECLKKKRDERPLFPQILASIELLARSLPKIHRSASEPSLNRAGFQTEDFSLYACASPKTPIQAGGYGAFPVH
Kind of test: Cellular assay of target protein degradation, T-Rex 293 cells stably transfected with HA-BRAF_V600E (HA immunofluorescence, high content imaging). The settings on record: T-Rex 293 HA-BRAF V600E; for DC50: half maximal degradation, read-out: BRaf V600E DC50; for Dmax: maximum degradation observed. Type of test: cell-based. An outline of the steps: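 Doxycycline-induced (1 ng/mL) cells were treated 24 h at 37 °C with compound at 1 μM to 0.1 nM final in 0.1% DMSO. After fixation, permeabilization and blocking, anti-HA staining was imaged by high-content reading; DC50 and Dmax (% of control) were derived.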

The target in the next test is T2, BRAF G466V (Homo sapiens, UniProt P15056, G466V).
T2 construct: expressed in transfected cells
T2 sequence (P15056 whole entry G466V): as the sequence (P15056 whole entry V600E) above, with G466V, E600V counted along it
Kind of test: Cellular assay of target protein degradation, T-Rex 293 cells stably transfected with HA-BRAF G466V (HA immunofluorescence, high content imaging). The conditions noted are these: T-Rex 293 HA-BRAF G466V; for DC50: half maximal degradation, read-out: BRaf G466V DC50; for Dmax: maximum degradation observed. The class given is cell-based. An outline of the steps:
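Cells expressing doxycycline-induced (0.75 ng/mL) HA-BRAF G466V were treated with compound at 30 nM to 3 pM in 0.1% DMSO for 24 hours at 37° C. After fixation and permeabilization, HA was immunostained and quantified by high content imaging to derive DC50 and Dmax.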

In the case of `COc1c(NS(=O)(=O)N2CC[C@@H](F)C2)ccc(F)c1C(=O)c1c[nH]c2ncc(-c3ccc(N4CCC(CN5CCC(c6ccc7c(c6)CN([C@H]6CCC(=O)NC6=O)C7=O)CC5)CC4)cc3)cc12` [Compound 207, (3R)—N-{3-[5-(4-{4-[(4-{2-[(3S)-2,6-dioxopiperidin-3-yl]-1-oxo-2,3-dihydro-1H-isoindol-5-yl}piperidin-1-yl)methyl]piperidin-1-yl}phenyl)-1H-pyrrolo[2,3-b]pyridine-3-carbonyl]-4-fluoro-2-methoxyphenyl}-3-fluoropyrrolidine-1-sulfonamide], on BRAF V600E, the DC50 fell in the range of 5 to 50 nM and the Dmax fell in the range of 35 to 70%. In addition, at BRAF G466V, the 50% degradation concentration (DC50) is below 1 nM and the Dmax is 35 to 70%.

`CC(C)N(C)S(=O)(=O)Nc1ccc(F)c(C(=O)c2c[nH]c3ncc(-c4ccc(N5CCC(CN6CCC(c7ccc8c(c7)CN([C@H]7CCC(=O)NC7=O)C8=O)CC6)CC5)cc4)cc23)c1F` [Compound 208, (3S)-3-(5-{1-[(1-{4-[3-(2,6-difluoro-3-{[methyl(propan-2-yl)sulfamoyl]amino}benzoyl)-1H-pyrrolo[2,3-b]pyridin-5-yl]phenyl}piperidin-4-yl)methyl]piperidin-4-yl}-1-oxo-2,3-dihydro-1H-isoindol-2-yl)piperidine-2,6-dione]: at BRAF V600E, the DC50 fell in the range of 5 to 50 nM and the greatest degradation seen (Dmax) was in the range of 35 to 70%. Besides, at BRAF G466V, the DC50 was below 1 nM and the Dmax fell in the range of 35 to 70%.

Regarding `O=C1CCC(N2Cc3cc(N4CC(CN5CCN(C6CCN(c7ccc(-c8cnc9[nH]cc(C(=O)c%10c(F)ccc(NS(=O)(=O)N%11CC[C@@H](F)C%11)c%10F)c9c8)cc7)CC6)CC5)C4)ccc3C2=O)C(=O)N1` (stereo partly drawn) [Compound 209, (3R)—N-{3-[5-(4-{4-[4-({1-[2-(2,6-dioxopiperidin-3-yl)-1-oxo-2,3-dihydro-1H-isoindol-5-yl]azetidin-3-yl}methyl)piperazin-1-yl]piperidin-1-yl}phenyl)-1H-pyrrolo[2,3-b]pyridine-3-carbonyl]-2,4-difluorophenyl}-3-fluoropyrrolidine-1-sulfonamide], the half-maximal degradation concentration (DC50) was in the range of 5 to 50 nM at BRAF V600E and 1 to 10 nM on BRAF G466V. Moreover, the values for the Dmax at BRAF V600E and on BRAF G466V were below 35% and 35 to 70%, respectively.

With `CNc1cc(-c2cnc3[nH]cc(C(=O)c4c(F)ccc(NS(=O)(=O)N5CC[C@@H](F)C5)c4F)c3c2)ccc1N1CCC(CN2CCC(c3ccc4c(c3)CN([C@H]3CCC(=O)NC3=O)C4=O)CC2)CC1` [Compound 210, (3R)—N-{3-[5-(4-{4-[(4-{2-[(3S)-2,6-dioxopiperidin-3-yl]-1-oxo-2,3-dihydro-1H-isoindol-5-yl}piperidin-1-yl)methyl]piperidin-1-yl}-3-(methylamino)phenyl)-1H-pyrrolo[2,3-b]pyridine-3-carbonyl]-2,4-difluorophenyl}-3-fluoropyrrolidine-1-sulfonamide], the figures for the DC50 at BRAF V600E and on BRAF G466V were 5 to 50 nM and 1 to 10 nM, respectively. In addition, the greatest degradation seen (Dmax) on BRAF V600E was 35 to 70%; at BRAF G466V it was above 70%.

As to `C[C@H]1CCCN1S(=O)(=O)Nc1ccc(F)c(C(=O)c2c[nH]c3ncc(-c4ccc(N5CCC(CN6CCC(c7ccc8c(c7)CN([C@H]7CCC(=O)NC7=O)C8=O)CC6)CC5)cc4)cc23)c1F` [Compound 211, (2S)—N-{3-[5-(4-{4-[(4-{2-[(3S)-2,6-dioxopiperidin-3-yl]-1-oxo-2,3-dihydro-1H-isoindol-5-yl}piperidin-1-yl)methyl]piperidin-1-yl}phenyl)-1H-pyrrolo[2,3-b]pyridine-3-carbonyl]-2,4-difluorophenyl}-2-methylpyrrolidine-1-sulfonamide], the 50% degradation concentration (DC50) on BRAF V600E fell in the range of 5 to 50 nM; on BRAF G466V it was 1 to 10 nM. Besides, the Dmax on BRAF V600E and at BRAF G466V was 35 to 70% each time.

`COc1ccc(NS(=O)(=O)N2CC[C@@H](F)C2)c(F)c1C(=O)c1c[nH]c2ncc(-c3ccc(N4CCC(CN5CCC(c6ccc7c(c6)CN([C@H]6CCC(=O)NC6=O)C7=O)CC5)CC4)cc3)cc12` [Compound 212, (3R)—N-{3-[5-(4-{4-[(4-{2-[(3S)-2,6-dioxopiperidin-3-yl]-1-oxo-2,3-dihydro-1H-isoindol-5-yl}piperidin-1-yl)methyl]piperidin-1-yl}phenyl)-1H-pyrrolo[2,3-b]pyridine-3-carbonyl]-2-fluoro-4-methoxyphenyl}-3-fluoropyrrolidine-1-sulfonamide]: on BRAF V600E, the DC50 fell in the range of 5 to 50 nM and the greatest degradation seen (Dmax) lay within 35 to 70%. On BRAF G466V, the DC50 was in the range of 1 to 10 nM and the Dmax was above 70%.

In the case of `CN(CC(F)F)S(=O)(=O)Nc1ccc(F)c(C(=O)c2c[nH]c3ncc(-c4ccc(N5CCC(CN6CCC(c7ccc8c(c7)CN(C7CCC(=O)NC7=O)C8=O)CC6)CC5)cc4)cc23)c1F` (centres unmarked) [Compound 213, 3-(5-{1-[(1-{4-[3-(3-{[(2,2-difluoroethyl)(methyl)sulfamoyl]amino}-2,6-difluorobenzoyl)-1H-pyrrolo[2,3-b]pyridin-5-yl]phenyl}piperidin-4-yl)methyl]piperidin-4-yl}-1-oxo-2,3-dihydro-1H-isoindol-2-yl) piperidine-2,6-dione], the half-maximal degradation concentration (DC50) on BRAF V600E lay within 5 to 50 nM; on BRAF G466V it was 1 to 10 nM. The Dmax on BRAF V600E is 35 to 70%; at BRAF G466V, above 70%.

Regarding `O=C1CCC(N2Cc3cc(N4CCC(C5CCN(c6ccc(-c7cnc8[nH]cc(C(=O)c9c(F)ccc(NS(=O)(=O)N%10CC[C@@H](F)C%10)c9F)c8c7)cc6)CC5)CC4)ccc3C2=O)C(=O)N1` (stereo partly drawn) [Compound 214, (3R)-N-{3-[5-(4-{1′-[2-(2,6-dioxopiperidin-3-yl)-1-oxo-2,3-dihydro-1H-isoindol-5-yl]-[4,4′-bipiperidin]-1-yl}phenyl)-1H-pyrrolo[2,3-b]pyridine-3-carbonyl]-2,4-difluorophenyl}-3-fluoropyrrolidine-1-sulfonamide], at BRAF V600E, the 50% degradation concentration (DC50) lay in the range of 5 to 50 nM and the greatest degradation seen (Dmax) was below 35%. Moreover, at BRAF G466V, the DC50 lay within 1 to 10 nM and the Dmax was 35 to 70%.

Consider `O=C1CCC(N2Cc3cc(C4CCN(CC5CCN(c6cnc(-c7cnc8[nH]cc(C(=O)c9c(F)ccc(NS(=O)(=O)N%10CC[C@@H](F)C%10)c9F)c8c7)nc6)CC5)CC4)ccc3C2=O)C(=O)N1` (stereo partly drawn) [Compound 215, (3R)-N-[3-(5-{5-[4-({4-[2-(2,6-dioxopiperidin-3-yl)-1-oxo-2,3-dihydro-1H-isoindol-5-yl]piperidin-1-yl}methyl)piperidin-1-yl]pyrimidin-2-yl}-1H-pyrrolo[2,3-b]pyridine-3-carbonyl)-2,4-difluorophenyl]-3-fluoropyrrolidine-1-sulfonamide], for which the DC50 is 5 to 50 nM at BRAF V600E and 1 to 10 nM at BRAF G466V. Moreover, the maximal degradation (Dmax) is 35 to 70% at BRAF V600E and above 70% at BRAF G466V.

Regarding `O=C1CCC(N2Cc3cc(C4CCN(CC[C@@H]5CCN(c6ccc(-c7cnc8[nH]cc(C(=O)c9c(F)ccc(NS(=O)(=O)N%10CC[C@@H](F)C%10)c9F)c8c7)cc6)C5)CC4)ccc3C2=O)C(=O)N1` (stereo partly drawn) [Compound 216, (3R)-N-[3-(5-{4-[(3R)-3-(2-{4-[2-(2,6-dioxopiperidin-3-yl)-1-oxo-2,3-dihydro-1H-isoindol-5-yl]piperidin-1-yl}ethyl)pyrrolidin-1-yl]phenyl}-1H-pyrrolo [2,3-b]pyridine-3-carbonyl)-2,4-difluorophenyl]-3-fluoropyrrolidine-1-sulfonamide], the 50% degradation concentration (DC50) at BRAF V600E fell in the range of 5 to 50 nM; on BRAF G466V it was 1 to 10 nM. Besides, the results for the Dmax at BRAF V600E and at BRAF G466V were below 35% and above 70%, respectively.

Turning to `O=C1CCC(N2Cc3cc(C4CCN(CC[C@H]5CCN(c6ccc(-c7cnc8[nH]cc(C(=O)c9c(F)ccc(NS(=O)(=O)N%10CC[C@@H](F)C%10)c9F)c8c7)cc6)C5)CC4)ccc3C2=O)C(=O)N1` (stereo partly drawn) [Compound 217, (3R)-N-[3-(5-{4-[(3S)-3-(2-{4-[2-(2,6-dioxopiperidin-3-yl)-1-oxo-2,3-dihydro-1H-isoindol-5-yl]piperidin-1-yl}ethyl)pyrrolidin-1-yl]phenyl}-1H-pyrrolo [2,3-b]pyridine-3-carbonyl)-2,4-difluorophenyl]-3-fluoropyrrolidine-1-sulfonamide], at BRAF V600E, the half-maximal degradation concentration (DC50) lay within 5 to 50 nM and the Dmax was in the range of 35 to 70%. For the same compound, on BRAF G466V, the half-maximal degradation concentration (DC50) was in the range of 10 to 30 nM and the Dmax was above 70%.

Turning to `O=C1CCC(N2Cc3cc(C4CCN(CCC5CN(c6ccc(-c7cnc8[nH]cc(C(=O)c9c(F)ccc(NS(=O)(=O)N%10CC[C@@H](F)C%10)c9F)c8c7)cc6)C5)CC4)ccc3C2=O)C(=O)N1` (stereo partly drawn) [Compound 218, (3R)-N-[3-(5-{4-[3-(2-{4-[2-(2,6-dioxopiperidin-3-yl)-1-oxo-2,3-dihydro-1H-isoindol-5-yl]piperidin-1-yl}ethyl)azetidin-1-yl]phenyl}-1H-pyrrolo[2,3-b]pyridine-3-carbonyl)-2,4-difluorophenyl]-3-fluoropyrrolidine-1-sulfonamide], the figures for the 50% degradation concentration (DC50) on BRAF V600E and on BRAF G466V were above 500 nM and above 30 nM, respectively.

For the compound `O=C1CC[C@H](N2Cc3cc(N4CCN(CC5CCN(c6ccc(-c7cnc8[nH]cc(C(=O)c9c(F)ccc(NS(=O)(=O)N%10CC[C@@H](F)C%10)c9F)c8c7)cc6)CC5)CC4)ccc3C2=O)C(=O)N1` [Compound 219, (3R)-N-{3-[5-(4-{4-[(4-{2-[(3S)-2,6-dioxopiperidin-3-yl]-1-oxo-2,3-dihydro-1H-isoindol-5-yl}piperazin-1-yl)methyl]piperidin-1-yl}phenyl)-1H-pyrrolo [2,3-b]pyridine-3-carbonyl]-2,4-difluorophenyl}-3-fluoropyrrolidine-1-sulfonamide], the half-maximal degradation concentration (DC50) at BRAF V600E lay in the range of 5 to 50 nM; on BRAF G466V, 1 to 10 nM. Further, the results for the Dmax on BRAF V600E and on BRAF G466V were 35 to 70% and above 70%, respectively.
